Patent US20220145295A1, “ENZYMATIC RNA SYNTHESIS” (President and Fellows of Harvard College, priority 2018, published 2022)
Blank lines part the entries; values can stand above or below the compound they belong to.

Assays:
Assay type in all cases: biochemical
[1] = molecular target: T1, S. cerevisiae poly(A) polymerase (Saccharomyces cerevisiae, UniProt P29468); test: Modified nucleotide incorporation by S. cerevisiae poly(A) polymerase, denaturing gel electrophoresis; conditions: 37° C., 60 minutes; for incorporation by S. cerevisiae poly(A) polymerase: 2.5 mM modified nucleotide, 0.5 mM Mn^2+, 900 units enzyme
T1 construct: purchased Thermo 74225Z25KU
T1 sequence (P29468 whole entry): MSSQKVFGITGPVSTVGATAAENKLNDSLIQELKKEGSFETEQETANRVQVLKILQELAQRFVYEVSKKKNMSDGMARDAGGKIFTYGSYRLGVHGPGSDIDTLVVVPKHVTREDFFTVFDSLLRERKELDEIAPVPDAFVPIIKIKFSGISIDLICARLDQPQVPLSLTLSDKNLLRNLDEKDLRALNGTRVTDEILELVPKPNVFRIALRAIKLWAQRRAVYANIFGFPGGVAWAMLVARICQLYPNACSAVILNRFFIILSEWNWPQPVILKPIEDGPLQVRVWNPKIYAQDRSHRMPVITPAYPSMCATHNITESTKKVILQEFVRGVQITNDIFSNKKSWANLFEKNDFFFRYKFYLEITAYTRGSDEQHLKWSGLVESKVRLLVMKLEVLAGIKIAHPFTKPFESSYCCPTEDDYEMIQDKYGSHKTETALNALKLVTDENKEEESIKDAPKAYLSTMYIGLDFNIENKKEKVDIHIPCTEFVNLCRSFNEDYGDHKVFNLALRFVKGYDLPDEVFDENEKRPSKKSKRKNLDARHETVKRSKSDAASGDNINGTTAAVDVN
Experimental: FIGS. 4A and 4B. […] All 2′-modified ribonucleotides were at a final concentration of 2.5 mM and incubated at 37° C. for 60 minutes. The control reaction consisted of all reaction components except nucleotide. […] The negative reaction consisted of all reaction components except nucleotide.
The efficiency of S. cerevisiae poly(A) polymerase (Thermo 74225Z25KU) for incorporating of several 2′-modified was evaluated. The modified nucleotides evaluated included the following: 2′-F-rATP (Trilink N-1007), 2′-Azido-rATP (Trilink N-1045), 2′-Amino-rATP (Trilink N-1046), and 2′-O-Methyl rATP (Trilink N-1015). Extension reactions were supplemented with the appropriate buffers, which included 0.5 mM Mn^2+, 200 pmol of the initiator RNA oligonucleotide, 2.5 mM modified nucleotide, and 900 units of enzyme. Reactions were incubated at 37° C. for 60 minutes before being analyzed with denaturing gel electrophoresis. According to the gel (FIG. 4A), under these reactions conditions S. cerevisiae poly(A) polymerase incorporates all 2′-modified nucleotides (2′-Amino-, 2′-O-Methyl-, 2′-F-, and 2′-Azido-rATP). […] Under the same reaction conditions, the reversible terminator nucleoside triphosphate, 2′-O-allyl-rATP, was tested for controlled incorporation by S. cerevisiae poly(A) polymerase.

[2] = molecular target: T2, S. pombe poly(U) polymerase (Schizosaccharomyces pombe, UniProt O13833); test: Controlled (n+1) extension with reversible terminator nucleotides by S. pombe poly(U) polymerase; conditions: 37° C.
T2 sequence (O13833 1-405): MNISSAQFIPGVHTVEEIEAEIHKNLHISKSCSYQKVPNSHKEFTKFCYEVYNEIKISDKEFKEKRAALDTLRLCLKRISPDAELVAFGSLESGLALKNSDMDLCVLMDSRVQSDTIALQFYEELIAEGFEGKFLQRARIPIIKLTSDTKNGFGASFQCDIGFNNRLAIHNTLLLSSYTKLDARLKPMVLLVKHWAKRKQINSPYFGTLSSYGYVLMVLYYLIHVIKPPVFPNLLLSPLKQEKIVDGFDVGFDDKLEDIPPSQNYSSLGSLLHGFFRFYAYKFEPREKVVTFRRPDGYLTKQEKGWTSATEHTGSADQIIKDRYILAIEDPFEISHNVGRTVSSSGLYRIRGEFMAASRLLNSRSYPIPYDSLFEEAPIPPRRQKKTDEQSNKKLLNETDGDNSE

[3] = molecular target: T3, N-terminus His^6-tagged S. pombe poly(U) polymerase (Schizosaccharomyces pombe, UniProt O13833); test: Activity of expressed N-terminus His6-tagged S. pombe poly(U) polymerase with 2′-O-allyl-ATP; conditions: 1 mM nucleotide, approximately 100 pmol of initiator oligonucleotide, 10 μL, 30 seconds at 37° C.
T3 construct: made in house; host or cells: E. coli (T7 Express)
T3 sequence (O13833 1-405): T2 sequence (O13833 1-405)
Experimental: FIGS. 13A and 13B. […] The expected molecular weight of the expressed N-terminus His^6-tagged S. pombe poly(U) polymerase is approximately 45 kDa. […] Reactions were supplemented with increasing amounts of initiator oligonucleotide (from 20 pmol to 1000 pmol) to determine the relative conversion rates as a function of initiator oligonucleotide material as performed by concentrated N-terminus His^6-tagged S. pombe poly(U) polymerase. All reaction volumes were 10 μL, the initiator oligonucleotide was a poly-rU-15-mer labeled with a 5′-Cy5 fluorophore. Reactions were incubated at 37° C. for 30 seconds. The control reaction contained all reaction components (initiator oligonucleotide was 20 pmol) with the exception of reversible terminator nucleotide.
The primary sequence for S. pombe poly(U) polymerase (UniProtKB—O13833) was modified by adding the amino acids “[…]” to the N-terminus of the enzyme. These amino acids encode for an N-terminus His^6-tag with the appropriate linkers. Using the protocol outlined in the material and methods section, N-terminus His^6-tagged S. pombe poly(U) polymerase was expressed, purified, and concentrated to a small volume. […] Using the N-terminus His^6-tagged S. pombe poly(U) polymerase, it was determined that approximately 100 pmol of initiator oligonucleotide can be converted to the (+1) product with a conversion rate of >99% (FIG. 13B). […]

[4] = molecular target: T4, S. pombe Cid1 poly(U) polymerase (Schizosaccharomyces pombe, UniProt O13833); test: Uncontrolled extension with natural and modified nucleotides by S. pombe Cid1 poly(U) polymerase (gel, RNA kinetic assay); conditions: for effect of inorganic pyrophosphatase supplementation on RNA synthesis by poly(U) polymerase: 1 mM ribonucleotide, 0.1 units Yeast Inorganic Pyrophosphatase; for incorporation of natural ribonucleotides by poly(U) polymerase: 1.0 mM nucleotide, 5′-Cy5-poly rU-15-mer, 37° C., 30 minutes, gel and RNA kinetic assay
T4 construct: purchased NEB M0337
T4 sequence (O13833 1-405): T2 sequence (O13833 1-405)

[5] = molecular target: T2, S. pombe poly(U) polymerase; test: RNA synthesis by S. pombe poly(U) polymerase with competitive inhibitor (non-hydrolyzable) nucleotide; conditions: with UTP, 30 minutes at 37° C.
[6] = molecular target: T5, Human polymerase μ R387K (Homo sapiens, UniProt Q9NP87, R387K); test: dATP / rATP incorporation by polymerase μ R387K, denaturing gel electrophoresis; conditions: 0.25 mM Mn^2+ and Mg^2+; for incorporation by polymerase μ R387K: poly dT-15-mer initiator
T5 construct: His-tag (pET-28c vector); made in house; host or cells: E. coli (T7 Express)
T5 sequence (Q9NP87 whole entry R387K): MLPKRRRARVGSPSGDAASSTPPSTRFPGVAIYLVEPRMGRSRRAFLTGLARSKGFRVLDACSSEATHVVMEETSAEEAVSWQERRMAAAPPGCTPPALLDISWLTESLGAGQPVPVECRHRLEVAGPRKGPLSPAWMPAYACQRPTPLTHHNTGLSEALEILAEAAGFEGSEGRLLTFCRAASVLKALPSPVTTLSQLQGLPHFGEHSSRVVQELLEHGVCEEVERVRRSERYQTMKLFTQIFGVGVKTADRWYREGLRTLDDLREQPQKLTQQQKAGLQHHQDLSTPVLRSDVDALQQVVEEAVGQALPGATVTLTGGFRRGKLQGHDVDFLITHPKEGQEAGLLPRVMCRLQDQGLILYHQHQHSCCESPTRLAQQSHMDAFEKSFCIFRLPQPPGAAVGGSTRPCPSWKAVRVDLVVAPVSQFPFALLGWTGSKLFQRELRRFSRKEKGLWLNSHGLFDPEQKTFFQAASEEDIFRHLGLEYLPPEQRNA
Experimental: FIGS. 3A to 3C. […] Denaturing gel electrophoresis analysis of dATP incorporation (FIG. 3B) and rATP incorporation (FIG. 3C) at nucleotide concentrations of 200-50 μM and 5.0-0.62 mM for dATP and rATP, respectively. These reactions were supplemented with 0.25 mM Mn^2+ and Mg^2+. The control reaction consisted of all reaction components except nucleotide. For all reactions, the initiator oligonucleotide was a HPLC-purified poly dT-15-mer.
Human polymerase μ R387K was expressed and purified as described in the materials and methods. Because it was unknown under which reaction conditions polymerase μ R387K functioned optimally, several reaction parameters were initially evaluated. […] Thus, polymerase p R387K, a confirmed DNA/RNA-directed polymerase, is useful for controlled enzymatic RNA synthesis.

incorporation by S. cerevisiae poly(A) polymerase [1]: incorporates
Structure (SMILES): Nc1ncnc2c1ncn2[C@@H]1O[C@H](COP(=O)(O)OP(=O)(O)OP(=O)(O)O)[C@@H](O)[C@H]1N [2′-Amino-rATP, 2′-amino-2′-deoxyadenosine-5′-triphosphate]

incorporation by S. cerevisiae poly(A) polymerase [1]: incorporates
Structure (SMILES): [N-]=[N+]=N[C@@H]1[C@H](O)[C@@H](COP(=O)(O)OP(=O)(O)OP(=O)(O)O)O[C@H]1n1cnc2c(N)ncnc21 [2′-Azido-rATP, 2′-azido-2′-deoxyadenosine-5′-triphosphate]

incorporation by S. cerevisiae poly(A) polymerase [1]: incorporates
Structure (SMILES): Nc1ncnc2c1ncn2[C@@H]1O[C@H](COP(=O)(O)OP(=O)(O)OP(=O)(O)O)[C@@H](O)[C@H]1F [2′-F-rATP, 2′-fluoro-2′-deoxyadenosine-5′-triphosphate]

incorporation by S. cerevisiae poly(A) polymerase [1]: incorporates
Structure (SMILES): CO[C@@H]1[C@H](O)[C@@H](COP(=O)(O)OP(=O)(O)OP(=O)(O)O)O[C@H]1n1cnc2c(N)ncnc21 [2′-O-Methyl rATP, 2′-O-methyladenosine-5′-triphosphate]

Structure (SMILES): C=CCO[C@@H]1[C@H](O)[C@@H](COP(=O)(O)OP(=O)(O)OP(=O)(O)O)O[C@H]1n1cnc2c(N)ncnc21 [2′-O-allyl-ATP]
incorporation of reversible terminator by poly(U) polymerase ([2]; 1 mM, 30 minutes, initiator extended by one base): incorporated only a single
conversion rate of initiator (+0) to extension product (+1) ([2]; optimized conditions, 0.5 minutes): > 99%
time required to fully convert the initiator oligonucleotide (+0) to extension product (+1) ([2]; optimized conditions, poly-rU-15-mer 5′-Cy5): less than or equal to 0.5 minutes
controlled incorporation by S. cerevisiae poly(A) polymerase ([1]; nucleoside triphosphate 250 μM to 4000 μM): positive (n+1) incorporation
conversion rate to the (+1) product [3]: > 99%

length of RNA oligonucleotides produced ([4]; 2 mM, 1 mM, or 0.5 mM nucleotide, 0.1 units PPi-ase, 30 minutes at 37° C.): 30-45 nt
Structure (SMILES): O=c1[nH]cc([C@@H]2O[C@H](COP(=O)(O)OP(=O)(O)OP(=O)(O)O)[C@@H](O)[C@H]2O)c(=O)[nH]1 [Pseudouridine, pseudouridine-5′-triphosphate]

concentrations having little effect on controlling the RNA synthesis reaction [5]: below 0.8 mM
Structure (SMILES): O=c1ccn([C@@H]2O[C@H](COP(=O)(O)NP(=O)(O)OP(=O)(O)O)[C@@H](O)[C@H]2O)c(=O)[nH]1 [Uridine-5′-[(α,β)-imido]triphosphate]
effect of higher concentrations of non-hydrolyzable ribonucleotide on rUTP incorporation [5]: significantly limited the total number of hydrolyzable rUTP incorporations

incorporation by polymerase μ R387K [6]: can incorporate
Structure (SMILES): Nc1ncnc2c1ncn2[C@H]1C[C@H](O)[C@@H](COP(=O)(O)OP(=O)(O)OP(=O)(O)O)O1 [dATP]

Structure (SMILES): Nc1ncnc2c1ncn2[C@@H]1O[C@H](COP(=O)(O)OP(=O)(O)OP(=O)(O)O)[C@@H](O)[C@H]1O [rATP]
effect of inorganic pyrophosphatase supplementation on RNA synthesis by poly(U) polymerase ([4]; 30 minutes at 37° C.): greatest enhancement
nucleotide concentration needed to produce a response similar to 200 μM of dATP [6]: 5 mM
incorporation by polymerase μ R387K [6]: can incorporate

incorporation of natural ribonucleotides by poly(U) polymerase [4]: has activity
effect of inorganic pyrophosphatase supplementation on RNA synthesis by poly(U) polymerase ([4]; 30 minutes at 37° C.): minimally affected
Structure (SMILES): Nc1ccn([C@@H]2O[C@H](COP(=O)(O)OP(=O)(O)OP(=O)(O)O)[C@@H](O)[C@H]2O)c(=O)n1 [rCTP]

incorporation of natural ribonucleotides by poly(U) polymerase [4]: has activity
effect of inorganic pyrophosphatase supplementation on RNA synthesis by poly(U) polymerase ([4]; 30 minutes at 37° C.): minimally affected
Structure (SMILES): Nc1nc2c(ncn2[C@@H]2O[C@H](COP(=O)(O)OP(=O)(O)OP(=O)(O)O)[C@@H](O)[C@H]2O)c(=O)[nH]1 [rGTP]

effect of inorganic pyrophosphatase supplementation on RNA synthesis by poly(U) polymerase ([4]; 30 minutes at 37° C.): greatest enhancement
Structure (SMILES): O=c1ccn([C@@H]2O[C@H](COP(=O)(O)OP(=O)(O)OP(=O)(O)O)[C@@H](O)[C@H]2O)c(=O)[nH]1 [rUTP]
